Laboratory results from US9833497B2, “Human originated EGF domain proteins and use of the same” (CHENGDU SOURCEBIO LIMITED-LIABILITY COMPANY, priority 2013, dated 2017).

Experiments:
Type in all cases: cell-based
[1] = tested on: E. coli DH5α; test: Antibacterial activity: MIC and growth curve against E. coli DH5α in 96-well plate; conditions: minimal inhibitory concentration against E. coli DH5α; 96-well plate, 5×10^5 CFU/mL, 37° C., judged after 8 h
Procedure, shortened: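 Log-phase DH5α (OD600 about 0.5, 37° C, 185 rpm in LB) was pelleted, resuspended in fresh LB and seeded at 5×10^5 CFU/mL with recombinant protein at 50, 25 and 12.5 μg/mL (two-fold series), in triplicate. Plates were shaken at 175 rpm, 37° C, and OD600 was read every 30 min. MIC was the lowest concentration with no growth.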

[2] = tested on: Proteus vulgaris; test: MIC against Gram-negative bacteria: Proteus vulgaris; conditions: 5×10^5 CFU/mL
Procedure, shortened: (§1)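 Bacteria grown in LB at 37° C to McFarland 0.5, resuspended and seeded at 5×10^5 CFU/mL in 96-well plates. Purified human EGF-domain proteins two-fold serially diluted, triplicate wells; cultured at 37° C, shaking 175 rpm. MIC = lowest protein concentration with no growth.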

[3] = tested on: Citrobacter diversus; test: MIC against Gram-negative bacteria: Citrobacter diversus; conditions: 5×10^5 CFU/mL
Procedure, shortened: as §1

[4] = tested on: Enterobacter cloacae; test: MIC against Gram-negative bacteria: Enterobacter cloacae; conditions: 5×10^5 CFU/mL
Procedure, shortened: as §1

[5] = tested on: Proteus mirabilis; test: MIC against Gram-negative bacteria: Proteus mirabilis; conditions: 5×10^5 CFU/mL
Procedure, shortened: as §1

[6] = tested on: Klebsiella pneumonia; test: MIC against Gram-negative bacteria: Klebsiella pneumonia; conditions: 5×10^5 CFU/mL
Procedure, shortened: as §1

[7] = tested on: E. coli BL21; test: MIC against Gram-negative bacteria: E. coli BL21; conditions: 5×10^5 CFU/mL
Procedure, shortened: as §1

[8] = tested on: Aeromonas hydrophila; test: MIC against Gram-negative bacteria: Aeromonas hydrophila; conditions: 5×10^5 CFU/mL
Procedure, shortened: as §1

[9] = tested on: Serratia marcescens; test: MIC against Gram-negative bacteria: Serratia marcescens; conditions: 5×10^5 CFU/mL
Procedure, shortened: as §1

[10] = tested on: Pseudomonas aeruginosa; test: MIC against Gram-negative bacteria: Pseudomonas aeruginosa; conditions: 5×10^5 CFU/mL
Procedure, shortened: as §1

[11] = tested on: Moraxella catarrhalis; test: MIC against Gram-negative bacteria: Moraxella catarrhalis; conditions: 5×10^5 CFU/mL
Procedure, shortened: as §1

[12] = 10 h cultivation at 37° C., two-fold serial dilution

PRT181 (RADPCAARPCAHGGRCYAHFSGLVCACAPGYMGARCE; listed as Homo sapiens)
MIC [1]: 25 µg/mL | MIC (μg/mL) P. vulgaris ([2]; 10 h cultivation at 37° C.): 50 µg/mL | MIC (μg/mL) C. diversus ([3]; 10 h cultivation at 37° C.): 25 µg/mL | MIC (μg/mL) E. cloacae ([4]; 10 h cultivation at 37° C.): 25 µg/mL | MIC (μg/mL) P. mirabilis ([5]; 10 h cultivation at 37° C.): 25 µg/mL | MIC (μg/mL) K. pneumonia ([6]; 10 h cultivation at 37° C.): 12.5 µg/mL | MIC (μg/mL) E. coli BL21 ([7]; 10 h cultivation at 37° C.): 50 µg/mL | MIC (μg/mL) A. hydrophila ([8]; 10 h cultivation at 37° C.): 50 µg/mL | MIC (μg/mL) S. marcescens ([9]; 10 h cultivation at 37° C.): 25 µg/mL | MIC (μg/mL) P. aeruginosa ([10]; 10 h cultivation at 37° C.): 25 µg/mL | MIC (μg/mL) M. catarrhalis ([11]; 10 h cultivation at 37° C.): 12.5 µg/mL

PRT872 (CKCNLHANLCSMREGSLQCECEHNTTGPDCGKCKKNFRTRSWRAGSYLPLPHGSPNACAT; listed as Homo sapiens)
MIC [1]: 25 µg/mL | MIC (μg/mL) P. vulgaris ([2]; 10 h cultivation at 37° C.): 50 µg/mL | MIC (μg/mL) C. diversus ([3]; 10 h cultivation at 37° C.): 12.5 µg/mL | MIC (μg/mL) E. cloacae ([4]; 10 h cultivation at 37° C.): 25 µg/mL | MIC (μg/mL) P. mirabilis ([5]; 10 h cultivation at 37° C.): 12.5 µg/mL | MIC (μg/mL) K. pneumonia ([6]; 10 h cultivation at 37° C.): 12.5 µg/mL | MIC (μg/mL) E. coli BL21 ([7]; 10 h cultivation at 37° C.): 50 µg/mL | MIC (μg/mL) A. hydrophila ([8]; 10 h cultivation at 37° C.): 50 µg/mL | MIC (μg/mL) S. marcescens ([9]; 10 h cultivation at 37° C.): 25 µg/mL | MIC (μg/mL) P. aeruginosa ([10]; 10 h cultivation at 37° C.): 25 µg/mL | MIC (μg/mL) M. catarrhalis ([11]; 10 h cultivation at 37° C.): 50 µg/mL

PRT515 (CHCDPIGSLNEVCVKDEKHARRGLAPGSCHCKTGFGGVSCDRCARGYTGYPDCKA; listed as Homo sapiens)
MIC [1]: 25 µg/mL | MIC against P. vulgaris ([2]; 96-well plate, 37° C., 10 h): 12.5 µg/mL | MIC against C. diversus ([3]; 96-well plate, 37° C., 10 h): 25 µg/mL | MIC against E. cloacae ([4]; 96-well plate, 37° C., 10 h): 25 µg/mL | MIC against P. mirabilis ([5]; 96-well plate, 37° C., 10 h): 50 µg/mL | MIC against K. pneumonia ([6]; 96-well plate, 37° C., 10 h): 12.5 µg/mL | MIC against E. coli BL21 ([7]; 96-well plate, 37° C., 10 h): 12.5 µg/mL | MIC against A. hydrophila ([8]; 96-well plate, 37° C., 10 h): 50 µg/mL | MIC against S. marcescens ([9]; 96-well plate, 37° C., 10 h): 50 µg/mL | MIC against P. aeruginosa ([10]; 96-well plate, 37° C., 10 h): 25 µg/mL | MIC against M. catarrhalis ([11]; 96-well plate, 37° C., 10 h): 100 µg/mL

PRT1078 (GTNKCRVNNGGCSSLCLATPGSRQCACAEDQVLDADGVTCL; listed as Homo sapiens)
MIC [1]: 25 µg/mL | MIC P. vulgaris [2, 12]: 50 µg/mL | MIC C. diversus [3, 12]: 12.5 µg/mL | MIC E. cloacae [4, 12]: 25 µg/mL | MIC P. mirabilis [5, 12]: 12.5 µg/mL | MIC K. pneumonia [6, 12]: 12.5 µg/mL | MIC E. coli BL21 [7, 12]: 50 µg/mL | MIC A. hydrophila [8, 12]: 50 µg/mL | MIC S. marcescens [9, 12]: 12.5 µg/mL | MIC P. aeruginosa [10, 12]: 25 µg/mL | MIC M. catarrhalis [11, 12]: 50 µg/mL

PRT237 (DINECTPPYSVYCGFNAVCYNVEGSFYCQCVPGYRLHSGNEQFSNSNENTCQ; listed as Homo sapiens)
MIC [1]: 25 µg/mL | MIC (μg/mL) P. vulgaris ([2]; 10 h cultivation at 37° C.): 25 µg/mL | MIC (μg/mL) C. diversus ([3]; 10 h cultivation at 37° C.): 25 µg/mL | MIC (μg/mL) E. cloacae ([4]; 10 h cultivation at 37° C.): 25 µg/mL | MIC (μg/mL) P. mirabilis ([5]; 10 h cultivation at 37° C.): 25 µg/mL | MIC (μg/mL) K. pneumonia ([6]; 10 h cultivation at 37° C.): 12.5 µg/mL | MIC (μg/mL) E. coli BL21 ([7]; 10 h cultivation at 37° C.): 12.5 µg/mL | MIC (μg/mL) A. hydrophila ([8]; 10 h cultivation at 37° C.): 12.5 µg/mL | MIC (μg/mL) S. marcescens ([9]; 10 h cultivation at 37° C.): 50 µg/mL | MIC (μg/mL) P. aeruginosa ([10]; 10 h cultivation at 37° C.): 25 µg/mL | MIC (μg/mL) M. catarrhalis ([11]; 10 h cultivation at 37° C.): 12.5 µg/mL

PRT707 (GKTVCEDFCQNGGTCIVTAGNQPYCHCQPEYTGDRCQ; listed as Homo sapiens)
MIC [1]: 50 µg/mL | MIC P. vulgaris ([2]; 96-well plate, 37° C., 10 h): 25 µg/mL | MIC C. diversus ([3]; 96-well plate, 37° C., 10 h): 12.5 µg/mL | MIC E. cloacae ([4]; 96-well plate, 37° C., 10 h): 12.5 µg/mL | MIC P. mirabilis ([5]; 96-well plate, 37° C., 10 h): 12.5 µg/mL | MIC K. pneumonia ([6]; 96-well plate, 37° C., 10 h): 12.5 µg/mL | MIC E. coli BL21 ([7]; 96-well plate, 37° C., 10 h): 25 µg/mL | MIC A. hydrophila ([8]; 96-well plate, 37° C., 10 h): 25 µg/mL | MIC S. marcescens ([9]; 96-well plate, 37° C., 10 h): 12.5 µg/mL | MIC P. aeruginosa ([10]; 96-well plate, 37° C., 10 h): 50 µg/mL | MIC M. catarrhalis ([11]; 96-well plate, 37° C., 10 h): 12.5 µg/mL

PRT168 (CLPGCDEQHGFCDKPGECKCRVGWQGRYC; listed as Homo sapiens)
MIC [1]: 25 µg/mL | MIC (μg/mL) P. vulgaris ([2]; 10 h cultivation at 37° C.): 50 µg/mL | MIC (μg/mL) C. diversus ([3]; 10 h cultivation at 37° C.): 12.5 µg/mL | MIC (μg/mL) E. cloacae ([4]; 10 h cultivation at 37° C.): 12.5 µg/mL | MIC (μg/mL) P. mirabilis ([5]; 10 h cultivation at 37° C.): 12.5 µg/mL | MIC (μg/mL) K. pneumonia ([6]; 10 h cultivation at 37° C.): 25 µg/mL | MIC (μg/mL) E. coli BL21 ([7]; 10 h cultivation at 37° C.): 25 µg/mL | MIC (μg/mL) A. hydrophila ([8]; 10 h cultivation at 37° C.): 50 µg/mL | MIC (μg/mL) S. marcescens ([9]; 10 h cultivation at 37° C.): 12.5 µg/mL | MIC (μg/mL) P. aeruginosa ([10]; 10 h cultivation at 37° C.): 12.5 µg/mL | MIC (μg/mL) M. catarrhalis ([11]; 10 h cultivation at 37° C.): 50 µg/mL
